Results published in PMC5218480 (PLoS ONE, 2017).

System: MV-4-11 cells
Experiment: Gene expression microarray analysis (Affymetrix PrimeView) and GSEA
Type: cell-based, human
Parameters: RFU PODN (11730768_x_at) / Fold change /veh PODN (11730768_x_at) / RFU LINC00158 (11744669_a_at) / Fold change /veh LINC00158 (11744669_a_at) / RFU DUSP10 (11751237_a_at) / Fold change /veh DUSP10 (11751237_a_at) / RFU ID3 (11757404_x_at) / Fold change /veh ID3 (11757404_x_at) / RFU PLEKHG5 (11737974_s_at) / Fold change /veh PLEKHG5 (11737974_s_at) / RFU LRRC4B (11730491_at) / Fold change /veh LRRC4B (11730491_at) / RFU GIMAP4 (11747438_a_at) / Fold change /veh GIMAP4 (11747438_a_at) / RFU KRT8 (11758183_x_at) / Fold change /veh KRT8 (11758183_x_at) / RFU CNN1 (11734310_a_at) / Fold change /veh CNN1 (11734310_a_at) / RFU VPS37D (11726825_at) / Fold change /veh VPS37D (11726825_at) / RFU C10orf10 (11716522_x_at) / Fold change /veh C10orf10 (11716522_x_at) / RFU KIR2DL2 /// KIR2DL4 /// KIR2DL5A /// KIR2DL5B /// KIR2DS1 /// KIR2DS2 /// KIR2DS3 /// KIR2DS4 /// KIR3DL3 /// KIR3DL3 /// KIR3DS1 (11738374_at) / Fold change /veh KIR2DL2 /// KIR2DL4 /// KIR2DL5A /// KIR2DL5B /// KIR2DS1 /// KIR2DS2 /// KIR2DS3 /// KIR2DS4 /// KIR3DL3 /// KIR3DL3 /// KIR3DS1 (11738374_at) / RFU C1QL1 (11718748_at) / Fold change /veh C1QL1 (11718748_at) / RFU TMPRSS4 (11747572_a_at) / Fold change /veh TMPRSS4 (11747572_a_at) / RFU HAMP (11756126_x_at) / Fold change /veh HAMP (11756126_x_at) / RFU RNFT2 (11725882_a_at) / Fold change /veh RNFT2 (11725882_a_at) / RFU NR4A2 (11747474_a_at) / Fold change /veh NR4A2 (11747474_a_at) / RFU ABCC12 (11746883_a_at) / Fold change /veh ABCC12 (11746883_a_at) / RFU TMEM136 (11760407_x_at) / Fold change /veh TMEM136 (11760407_x_at) / RFU CLDN22 /// WWC2 (11732394_at) / Fold change /veh CLDN22 /// WWC2 (11732394_at) / RFU HLA-DPB1 (11760878_x_at) / Fold change /veh HLA-DPB1 (11760878_x_at) / RFU SPINT1 (11716480_a_at) / Fold change /veh SPINT1 (11716480_a_at) / RFU GAP43 (11754022_s_at) / Fold change /veh GAP43 (11754022_s_at) / RFU A4GNT (11735810_at) / Fold change /veh A4GNT (11735810_at) / RFU PRB3 (11715151_x_at) / Fold change /veh PRB3 (11715151_x_at) / RFU TUBB4B (11761932_at) / Fold change /veh TUBB4B (11761932_at) / RFU CAPN14 (11732068_a_at) / Fold change /veh CAPN14 (11732068_a_at) / RFU TMCC2 (11721928_a_at) / Fold change /veh TMCC2 (11721928_a_at) / RFU IRGQ (11745062_a_at) / Fold change /veh IRGQ (11745062_a_at) / RFU FAM174B (11720279_a_at) / Fold change /veh FAM174B (11720279_a_at) / RFU TMPRSS4 (11748680_a_at) / Fold change /veh TMPRSS4 (11748680_a_at) / RFU FAM212B (11763350_a_at) / Fold change /veh FAM212B (11763350_a_at) / RFU PLEKHG5 (11743358_a_at) / Fold change /veh PLEKHG5 (11743358_a_at) / RFU ZSCAN30 (11745921_a_at) / Fold change /veh ZSCAN30 (11745921_a_at) / RFU CMKLR1 (11741424_a_at) / Fold change /veh CMKLR1 (11741424_a_at) / RFU LOC101060620 /// MAPK8IP1 (11723275_at) / Fold change /veh LOC101060620 /// MAPK8IP1 (11723275_at) / RFU SPTSSB (11747773_x_at) / Fold change /veh SPTSSB (11747773_x_at) / RFU PRSS12 (11739890_at) / Fold change /veh PRSS12 (11739890_at) / RFU BIN1 (11741810_x_at) / Fold change /veh BIN1 (11741810_x_at) / RFU WNT11 (11732464_a_at) / Fold change /veh WNT11 (11732464_a_at) / RFU C10orf10 (11716521_a_at) / Fold change /veh C10orf10 (11716521_a_at) / RFU C5orf56 (11738089_at) / Fold change /veh C5orf56 (11738089_at) / RFU CYB561 (11721691_x_at) / Fold change /veh CYB561 (11721691_x_at) / RFU ANKRD19P (11752326_a_at) / Fold change /veh ANKRD19P (11752326_a_at) / RFU OR2T12 /// OR2T33 /// OR2T8 (11738714_s_at) / Fold change /veh OR2T12 /// OR2T33 /// OR2T8 (11738714_s_at) / RFU VCAN (11748164_a_at) / Fold change /veh VCAN (11748164_a_at) / RFU JSRP1 (11732532_at) / Fold change /veh JSRP1 (11732532_at) / RFU KRTAP10-11 (11738290_x_at) / Fold change /veh KRTAP10-11 (11738290_x_at) / RFU MYO3A (11730013_a_at) / Fold change /veh MYO3A (11730013_a_at) / RFU EBF3 (11725865_a_at) / Fold change /veh EBF3 (11725865_a_at) / RFU CAMK2N1 (11719241_x_at) / Fold change /veh CAMK2N1 (11719241_x_at) / RFU C5orf56 (11738088_a_at) / Fold change /veh C5orf56 (11738088_a_at) / RFU OLFML3 (11715873_a_at) / Fold change /veh OLFML3 (11715873_a_at) / RFU LOC100653217 /// NTM (11731650_a_at) / Fold change /veh LOC100653217 /// NTM (11731650_a_at) / RFU MAPK11 (11762145_a_at) / Fold change /veh MAPK11 (11762145_a_at) / RFU FIZ1 (11724087_x_at) / Fold change /veh FIZ1 (11724087_x_at) / RFU OASL (11726364_x_at) / Fold change /veh OASL (11726364_x_at) / RFU SOX15 (11748057_x_at) / Fold change /veh SOX15 (11748057_x_at) / RFU CD79A (11719716_a_at) / Fold change /veh CD79A (11719716_a_at) / RFU HIST1H1D (11736915_at) / Fold change /veh HIST1H1D (11736915_at) / RFU CASKIN2 (11723855_a_at) / Fold change /veh CASKIN2 (11723855_a_at) / RFU LOC730098 (11760151_x_at) / Fold change /veh LOC730098 (11760151_x_at) / RFU OR4N2 (11742367_at) / Fold change /veh OR4N2 (11742367_at) / RFU PRRT2 (11749266_a_at) / Fold change /veh PRRT2 (11749266_a_at) / RFU SNX32 (11753110_a_at) / Fold change /veh SNX32 (11753110_a_at) / RFU CDHR5 (11726645_a_at) / Fold change /veh CDHR5 (11726645_a_at) / RFU RCAN1 (11760418_a_at) / Fold change /veh RCAN1 (11760418_a_at) / RFU FAM167A (11723789_a_at) / Fold change /veh FAM167A (11723789_a_at) / RFU FAM26E (11764081_at) / Fold change /veh FAM26E (11764081_at) / RFU ISYNA1 (11749810_s_at) / Fold change /veh ISYNA1 (11749810_s_at) / RFU ACY1 (11761880_at) / Fold change /veh ACY1 (11761880_at) / RFU 11764098_at / Fold change /veh 11764098_at / RFU SAMD14 (11745864_x_at) / Fold change /veh SAMD14 (11745864_x_at) / RFU NPB (11741838_a_at) / Fold change /veh NPB (11741838_a_at) / RFU TMPRSS6 (11731388_a_at) / Fold change /veh TMPRSS6 (11731388_a_at) / RFU KRTAP10-2 (11738614_at) / Fold change /veh KRTAP10-2 (11738614_at) / RFU ARHGAP8 /// PRR5-ARHGAP8 (11727945_x_at) / Fold change /veh ARHGAP8 /// PRR5-ARHGAP8 (11727945_x_at) / RFU KRTAP5-7 /// NADSYN1 (11734609_at) / Fold change /veh KRTAP5-7 /// NADSYN1 (11734609_at) / RFU RASL12 (11751679_a_at) / Fold change /veh RASL12 (11751679_a_at) / RFU CDKN2B (11736163_a_at) / Fold change /veh CDKN2B (11736163_a_at) / RFU PRF1 (11729649_at) / Fold change /veh PRF1 (11729649_at) / RFU, ZNF638 /// ZNF638-IT1 / Fold change vs veh, ZNF638 /// ZNF638-IT1 / RFU, PANK3 / Fold change vs veh, PANK3 / RFU, SH3YL1 / Fold change vs veh, SH3YL1 / RFU, ZEB2 / Fold change vs veh, ZEB2 / RFU, NRIP1 / Fold change vs veh, NRIP1 / RFU, PTTG1IP / Fold change vs veh, PTTG1IP / RFU, CAPN2 / Fold change vs veh, CAPN2 / RFU, MED14 / Fold change vs veh, MED14 / RFU, SNORA58 / Fold change vs veh, SNORA58 / RFU, C1orf63 / Fold change vs veh, C1orf63 / RFU, LRRFIP1 / Fold change vs veh, LRRFIP1 / RFU, NDUFAF7 / Fold change vs veh, NDUFAF7 / RFU, SLC12A2 / Fold change vs veh, SLC12A2 / RFU, IBTK / Fold change vs veh, IBTK / RFU, ESF1 / Fold change vs veh, ESF1 / Fold change vs veh, TMEM50B / RFU, TAOK1 / Fold change vs veh, TAOK1 / RFU, ACBD3 / Fold change vs veh, ACBD3 / RFU, TMA16 / Fold change vs veh, TMA16 / RFU, RWDD3 / Fold change vs veh, RWDD3 / RFU, BCAT1 / Fold change vs veh, BCAT1 / RFU, EDEM3 / Fold change vs veh, EDEM3 / RFU, TMEM33 / Fold change vs veh, TMEM33 / RFU, WDR75 / Fold change vs veh, WDR75 / RFU, AHCTF1 / Fold change vs veh, AHCTF1 / RFU, TFRC / Fold change vs veh, TFRC / RFU, ZDHHC17 / Fold change vs veh, ZDHHC17 / RFU, NOM1 / Fold change vs veh, NOM1 / RFU, ARL8B / Fold change vs veh, ARL8B / RFU, ZBTB11 / Fold change vs veh, ZBTB11 / RFU, TAMM41 / Fold change vs veh, TAMM41 / RFU, KIAA1704 /// LOC100996395 / Fold change vs veh, KIAA1704 /// LOC100996395 / RFU, ING1 / Fold change vs veh, ING1 / RFU, TRMT61B / Fold change vs veh, TRMT61B / RFU, FUBP3 / Fold change vs veh, FUBP3 / RFU, TP53 / Fold change vs veh, TP53 / RFU, TNKS2 / Fold change vs veh, TNKS2 / RFU, ZFP14 / Fold change vs veh, ZFP14 / RFU, ACTR2 / Fold change vs veh, ACTR2 / RFU, PPP3R1 / Fold change vs veh, PPP3R1 / RFU, PIK3R1 / Fold change vs veh, PIK3R1 / RFU, HNRNPA1 / Fold change vs veh, HNRNPA1 / RFU, RNF170 / Fold change vs veh, RNF170 / RFU, ZNF28 / Fold change vs veh, ZNF28 / RFU, RNGTT / Fold change vs veh, RNGTT / RFU, OGT / Fold change vs veh, OGT / RFU, BRD1 / Fold change vs veh, BRD1 / RFU, MARS / Fold change vs veh, MARS / RFU, ZNF655 / Fold change vs veh, ZNF655 / RFU, FAHD1 / Fold change vs veh, FAHD1 / RFU, BDP1 / Fold change vs veh, BDP1 / RFU, LRRCC1 / Fold change vs veh, LRRCC1 / RFU, ARID1A / Fold change vs veh, ARID1A / RFU, ZNF146 / Fold change vs veh, ZNF146 / RFU, ZNF330 / Fold change vs veh, ZNF330 / RFU, GPN3 / Fold change vs veh, GPN3 / RFU, C9orf123 / Fold change vs veh, C9orf123 / RFU, N4BP2L2 / Fold change vs veh, N4BP2L2 / RFU, ARFIP1 / Fold change vs veh, ARFIP1 / RFU, FAM179B / Fold change vs veh, FAM179B / RFU, BCL10 / Fold change vs veh, BCL10 / RFU, UHRF1BP1L / Fold change vs veh, UHRF1BP1L / RFU, BET1 / Fold change vs veh, BET1 / RFU, CNOT2 / Fold change vs veh, CNOT2 / RFU, ZNF268 / Fold change vs veh, ZNF268 / Fold change vs veh, ZNF507 / RFU, DGCR2 / Fold change vs veh, DGCR2 / RFU, WDSUB1 / Fold change vs veh, WDSUB1 / Fold change vs veh, HSP90B1 /// MIR3652 / RFU, ADSS / Fold change vs veh, ADSS / RFU, GK / Fold change vs veh, GK / RFU, ZNF148 / Fold change vs veh, ZNF148 / RFU, TAF9 / Fold change vs veh, TAF9 / RFU, SLC1A5 / Fold change vs veh, SLC1A5 / RFU, SLMO2 / Fold change vs veh, SLMO2 / RFU, ABCC4 / Fold change vs veh, ABCC4 / RFU, LOC101060439 /// RAP1B / Fold change vs veh, LOC101060439 /// RAP1B / RFU, RFX7 / Fold change vs veh, RFX7 / RFU, GTPBP10 / Fold change vs veh, GTPBP10 / RFU, CNEP1R1 / Fold change vs veh, CNEP1R1 / RFU, BIVM-ERCC5 /// ERCC5 / Fold change vs veh, BIVM-ERCC5 /// ERCC5 / RFU, ILF3 / Fold change vs veh, ILF3 / RFU 11762660_at / Fold change /veh 11762660_at / RFU VCAN (11757783_s_at) / Fold change /veh VCAN (11757783_s_at) / RFU DDX43 (11728927_at) / Fold change /veh DDX43 (11728927_at) / RFU KRT8 (11758188_x_at) / Fold change /veh KRT8 (11758188_x_at) / RFU NKD1 (11759106_at) / Fold change /veh NKD1 (11759106_at) / RFU SRD5A1 (11742802_a_at) / Fold change /veh SRD5A1 (11742802_a_at) / RFU TPSAB1 /// TPSB2 (11721975_s_at) / Fold change /veh TPSAB1 /// TPSB2 (11721975_s_at) / RFU GSTM3 (11746129_a_at) / Fold change /veh GSTM3 (11746129_a_at) / RFU IL23R (11737362_x_at) / Fold change /veh IL23R (11737362_x_at) / RFU TMEM51 (11727254_a_at) / Fold change /veh TMEM51 (11727254_a_at) / RFU PIWIL2 (11732686_x_at) / Fold change /veh PIWIL2 (11732686_x_at) / RFU ORM1 (11744905_x_at) / Fold change /veh ORM1 (11744905_x_at) / RFU CCDC152 (11743942_at) / Fold change /veh CCDC152 (11743942_at) / RFU ECM1 (11717891_a_at) / Fold change /veh ECM1 (11717891_a_at) / RFU IL23R (11748794_a_at) / Fold change /veh IL23R (11748794_a_at) / RFU TNFAIP8L3 (11732012_x_at) / Fold change /veh TNFAIP8L3 (11732012_x_at) / RFU MBOAT4 (11741988_at) / Fold change /veh MBOAT4 (11741988_at) / RFU 11764193_at / Fold change /veh 11764193_at / RFU TMEM53 (11763286_at) / Fold change /veh TMEM53 (11763286_at) / RFU MAGEB2 (11727129_at) / Fold change /veh MAGEB2 (11727129_at) / RFU TMEM200A (11744735_a_at) / Fold change /veh TMEM200A (11744735_a_at) / RFU CCDC152 (11751479_a_at) / Fold change /veh CCDC152 (11751479_a_at) / RFU FAM211A (11726209_a_at) / Fold change /veh FAM211A (11726209_a_at) / RFU RGS16 (11746705_a_at) / Fold change /veh RGS16 (11746705_a_at) / RFU VCAN (11755009_s_at) / Fold change /veh VCAN (11755009_s_at) / RFU RHOB (11743442_s_at) / Fold change /veh RHOB (11743442_s_at) / RFU RGS16 (11720943_a_at) / Fold change /veh RGS16 (11720943_a_at) / RFU RGS16 (11720944_at) / Fold change /veh RGS16 (11720944_at) / RFU, VPS4B / Fold change vs veh, VPS4B / RFU, CREB1 / Fold change vs veh, CREB1 / RFU, DNAJC13 / Fold change vs veh, DNAJC13 / RFU, GNAQ / Fold change vs veh, GNAQ / RFU, CDK5R1 / Fold change vs veh, CDK5R1 / RFU, ZRANB3 / Fold change vs veh, ZRANB3 / RFU, CUL4A / Fold change vs veh, CUL4A / RFU, CCNY / Fold change vs veh, CCNY / RFU, UFL1 / Fold change vs veh, UFL1 / RFU, COG3 / Fold change vs veh, COG3 / RFU, DIAPH2 / Fold change vs veh, DIAPH2 / RFU, SKA2 / Fold change vs veh, SKA2 / RFU, AFF3 / Fold change vs veh, AFF3 / RFU, LMF1 / Fold change vs veh, LMF1 / RFU, IPO11 / Fold change vs veh, IPO11 / RFU, DFFB / Fold change vs veh, DFFB / RFU, FOXP1 / Fold change vs veh, FOXP1 / RFU, CARD8 / Fold change vs veh, CARD8 / RFU, STRN3 / Fold change vs veh, STRN3 / RFU, ADK / Fold change vs veh, ADK / RFU, RASSF2 / Fold change vs veh, RASSF2 / RFU, WIPF1 / Fold change vs veh, WIPF1 / RFU, LARP1B / Fold change vs veh, LARP1B / RFU, RASA1 / Fold change vs veh, RASA1 / RFU, RB1 / Fold change vs veh, RB1 / RFU, PPFIA1 / Fold change vs veh, PPFIA1 / RFU, MAT2A / Fold change vs veh, MAT2A / RFU, CCT5 / Fold change vs veh, CCT5 / RFU, WDR92 / Fold change vs veh, WDR92 / RFU, CUX1 / Fold change vs veh, CUX1 / RFU, TTC7A / Fold change vs veh, TTC7A / RFU, TMEM135 / Fold change vs veh, TMEM135 / RFU, DEPTOR / Fold change vs veh, DEPTOR / RFU, CPM / Fold change vs veh, CPM / RFU, DNAJB6 / Fold change vs veh, DNAJB6 / RFU, CACNA2D3 / Fold change vs veh, CACNA2D3 / RFU, DTX4 / Fold change vs veh, DTX4 / RFU, TFCP2 / Fold change vs veh, TFCP2 / RFU, GMCL1 /// GMCL1P1 / Fold change vs veh, GMCL1 /// GMCL1P1 / RFU, AEBP2 / Fold change vs veh, AEBP2 / RFU, SNHG1 /// SNORD22 /// SNORD25 /// SNORD26 /// SNORD27 /// SNORD28 /// SNORD29 /// SNORD31 / Fold change vs veh, SNHG1 /// SNORD22 /// SNORD25 /// SNORD26 /// SNORD27 /// SNORD28 /// SNORD29 /// SNORD31 / Fold change (Aza/veh), C12orf56 (ProbeSet 11735607_a_at) / Fold change (ACY-1035/veh), C12orf56 (ProbeSet 11735607_a_at) / Fold change (Aza/veh), FGFR1OP (ProbeSet 11751329_s_at) / Fold change (ACY-1035/veh), FGFR1OP (ProbeSet 11751329_s_at) / Fold change (Aza/veh), VPS36 (ProbeSet 11739960_a_at) / Fold change (ACY-1035/veh), VPS36 (ProbeSet 11739960_a_at) / RFU SYPL1 (11715823_x_at) / Fold change /veh SYPL1 (11715823_x_at) / RFU IGFBP7 (11715501_s_at) / Fold change /veh IGFBP7 (11715501_s_at) / RFU REEP3 (11722064_at) / Fold change /veh REEP3 (11722064_at) / RFU IGLL1 (11728026_x_at) / Fold change /veh IGLL1 (11728026_x_at): dose or concentration left out as unconfirmed
Conditions: gene FGFR1OP; Azacitidine vs DMSO; LIST F

SMILES: Nc1ncn([C@@H]2O[C@H](CO)[C@@H](O)[C@H]2O)c(=O)n1 [azacitidine]
- Fold change (Aza/veh), FGFR1OP (ProbeSet 11751329_s_at): 0.95
